ChEMBL document CHEMBL3877335, “Bifunctional Inhibitors as a New Tool To Reduce Cancer Cell Invasion by Impairing MMP-9 Homodimerization” (ACS Med Chem Lett, 2017)
Active and inactive are the calls of the source. The rule behind the calls is not given here.

How the values were obtained:
[1] = target: T1, Matrix metalloproteinase-9 (Homo sapiens, UniProt P14780); assay: Inhibition of MMP-9 homodimerization in human U343MG cells assessed as reduction in cell invasion at 25 nM measured after 24 hrs by p-formaldehyde/crystal violet staining based matrigel basement membrane transwell assay
[2] = target: T1, Matrix metalloproteinase-9; settings: T98G, 25 nM
Description: Inhibition of MMP-9 homodimerization in human T98G cells assessed as reduction in cell invasion at 25 nM measured after 24 hrs by p-formaldehyde/crystal violet staining based matrigel basement membrane transwell assay

[3] = target: T1, Matrix metalloproteinase-9; settings: U-87MG ATCC, 25 nM
Description: Inhibition of MMP-9 homodimerization in human U87MG cells assessed as reduction in cell invasion at 25 nM measured after 24 hrs by p-formaldehyde/crystal violet staining based matrigel basement membrane transwell assay

[4] = target: Matrix metalloproteinase-14 (Homo sapiens, UniProt P50281); assay: Inhibition of recombinant human MMP-14 catalytic domain pretreated for 4 hrs followed by Mca-Lys-Pro-Leu-Gly-Leu-Dap(Dnp)-Ala-Arg-NH2 fluorogenic substrate addition measured every 15 secs for 20 mins by fluorimetric assay
[5] = target: T1, Matrix metalloproteinase-9; assay: Inhibition of p-aminophenylmercuric acetate activated recombinant human MMP-9 expressed in CHO cells pretreated for 4 hrs followed by Mca-Lys-Pro-Leu-Gly-Leu-Dap(Dnp)-Ala-Arg-NH2 fluorogenic substrate addition measured every 15 secs for 20 mins by fluorimetric assay; assay type: cell-based
[6] = target: 72 kDa type IV collagenase (Homo sapiens, UniProt P08253); assay: Inhibition of p-aminophenylmercuric acetate activated recombinant human MMP-2 expressed in CHO cells pretreated for 4 hrs followed by Mca-Lys-Pro-Leu-Gly-Leu-Dap(Dnp)-Ala-Arg-NH2 fluorogenic substrate addition measured every 15 secs for 20 mins by fluorimetric assay; assay type: cell-based
Interstitial collagenase = target: T2, Interstitial collagenase (Homo sapiens, UniProt P03956); assay: Inhibition of p-aminophenylmercuric acetate activated human rheumatoid synovial fibroblast MMP-1 pretreated for 4 hrs followed by Mca-Lys-Pro-Leu-Gly-Leu-Dap(Dnp)-Ala-Arg-NH2 fluorogenic substrate addition measured every 15 secs for 20 mins by fluorimetric assay
T2 sequence (P03956 whole entry): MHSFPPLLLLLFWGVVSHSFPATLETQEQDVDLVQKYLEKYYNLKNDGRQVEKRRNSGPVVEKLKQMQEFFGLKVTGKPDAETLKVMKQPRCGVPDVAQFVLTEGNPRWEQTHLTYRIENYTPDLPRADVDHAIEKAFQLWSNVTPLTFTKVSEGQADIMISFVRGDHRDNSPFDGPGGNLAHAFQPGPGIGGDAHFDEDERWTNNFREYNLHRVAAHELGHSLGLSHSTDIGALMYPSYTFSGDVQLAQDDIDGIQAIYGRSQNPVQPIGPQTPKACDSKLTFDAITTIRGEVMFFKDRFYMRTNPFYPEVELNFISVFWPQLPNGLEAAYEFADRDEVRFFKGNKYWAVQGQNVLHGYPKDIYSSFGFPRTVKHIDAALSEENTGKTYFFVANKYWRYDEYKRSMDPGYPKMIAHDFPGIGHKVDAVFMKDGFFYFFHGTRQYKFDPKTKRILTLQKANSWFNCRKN

[7] = Antiproliferative activity against human T98G cells at 5 to 25 nM measured after 24 hrs by MTS assay; assay type: cell-based; settings: 0.025 µM
[8] = Antiproliferative activity against human U87MG cells at 5 to 25 nM measured after 24 hrs by MTS assay; assay type: cell-based; settings: u-87mg atcc, 0.025 µM
[9] = Antiproliferative activity against human U343MG cells at 5 to 25 nM measured after 24 hrs by MTS assay; assay type: cell-based; settings: 0.025 µM
[10] = target: T1, Matrix metalloproteinase-9; assay: Inhibition of MMP-9 homodimerization in human T98G cells assessed as reduction in cell invasion at 5 to 25 nM measured after 24 hrs by p-formaldehyde/crystal violet staining based matrigel basement membrane transwell assay
[11] = target: T1, Matrix metalloproteinase-9; assay: Inhibition of MMP-9 homodimerization in human U87MG cells assessed as reduction in cell invasion at 5 to 25 nM measured after 24 hrs by p-formaldehyde/crystal violet staining based matrigel basement membrane transwell assay; settings: U-87MG ATCC
Homo sapiens = species on record: Homo sapiens; assay: Selectivity ratio of IC50 for p-aminophenylmercuric acetate activated human rheumatoid synovial fibroblast MMP-1 to IC50 for p-aminophenylmercuric acetate activated recombinant human MMP-9

T1 sequence (P14780 whole entry): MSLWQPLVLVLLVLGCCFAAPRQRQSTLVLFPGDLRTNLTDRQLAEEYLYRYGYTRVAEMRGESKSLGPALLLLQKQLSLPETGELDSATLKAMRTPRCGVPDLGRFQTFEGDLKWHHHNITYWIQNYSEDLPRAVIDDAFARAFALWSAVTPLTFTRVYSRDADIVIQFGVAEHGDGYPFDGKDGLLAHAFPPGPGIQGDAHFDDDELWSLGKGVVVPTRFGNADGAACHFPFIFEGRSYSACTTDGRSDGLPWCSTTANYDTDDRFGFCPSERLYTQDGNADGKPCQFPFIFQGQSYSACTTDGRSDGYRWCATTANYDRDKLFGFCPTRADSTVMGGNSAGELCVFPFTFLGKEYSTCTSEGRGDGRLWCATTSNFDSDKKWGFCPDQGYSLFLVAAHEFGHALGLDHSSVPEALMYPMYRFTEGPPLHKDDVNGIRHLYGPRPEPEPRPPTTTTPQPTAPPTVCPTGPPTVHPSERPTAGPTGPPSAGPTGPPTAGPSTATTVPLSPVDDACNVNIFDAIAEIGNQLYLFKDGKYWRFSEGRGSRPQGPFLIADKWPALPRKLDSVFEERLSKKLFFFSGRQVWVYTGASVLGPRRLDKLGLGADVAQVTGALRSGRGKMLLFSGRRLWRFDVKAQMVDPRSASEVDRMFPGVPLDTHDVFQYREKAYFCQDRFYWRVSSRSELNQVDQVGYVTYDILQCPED
Chain of 72 kDa type IV collagenase (P08253 whole entry): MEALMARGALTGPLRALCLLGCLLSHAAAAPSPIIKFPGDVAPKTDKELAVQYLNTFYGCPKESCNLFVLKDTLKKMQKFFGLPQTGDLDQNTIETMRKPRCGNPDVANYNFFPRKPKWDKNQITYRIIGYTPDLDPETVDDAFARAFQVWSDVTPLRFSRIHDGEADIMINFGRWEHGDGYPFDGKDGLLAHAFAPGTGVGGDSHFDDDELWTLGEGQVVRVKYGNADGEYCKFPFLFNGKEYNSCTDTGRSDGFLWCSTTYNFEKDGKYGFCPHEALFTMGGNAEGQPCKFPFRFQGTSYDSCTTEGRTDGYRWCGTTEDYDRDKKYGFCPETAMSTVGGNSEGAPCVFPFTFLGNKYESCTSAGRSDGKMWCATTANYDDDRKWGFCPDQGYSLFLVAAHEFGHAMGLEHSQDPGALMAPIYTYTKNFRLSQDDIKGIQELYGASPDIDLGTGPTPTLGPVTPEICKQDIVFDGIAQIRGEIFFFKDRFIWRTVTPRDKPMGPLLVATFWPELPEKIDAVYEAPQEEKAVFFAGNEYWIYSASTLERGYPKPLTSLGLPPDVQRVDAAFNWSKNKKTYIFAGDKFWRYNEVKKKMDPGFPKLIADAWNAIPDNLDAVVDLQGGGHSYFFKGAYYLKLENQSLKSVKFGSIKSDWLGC

SMILES | inhibition [1] | inhibition [2] | inhibition [3] | IC50 [4] [nM] | IC50 [5] [nM] | IC50 [6] [nM] | IC50 (Interstitial collagenase) [nM] | Activity [7] | Activity [8] | Activity [9] | inhibition [10] | inhibition [11] | Ratio IC50 (Homo sapiens)
COc1ccc(S(=O)(=O)N(Cc2cccnc2)[C@@H](C(=O)NO)C(C)C)cc1 | Active | Active | Active |  |  |  |  |  |  |  |  |  | 
CC(C)ON([C@H](CCNC(=O)CCCNC(=O)c1cccc(C(=O)NCCCC(=O)NCC[C@H](C(=O)NO)N(OC(C)C)S(=O)(=O)c2ccc(-c3ccccc3)cc2)c1)C(=O)NO)S(=O)(=O)c1ccc(-c2ccccc2)cc1 |  |  |  | 116 | 38 | 20 | 5200 |  |  |  |  |  | 
CC(C)[C@H](C(=O)NO)N(CCNC(=O)c1ccccc1)S(=O)(=O)c1ccc(-c2ccccc2)cc1 |  |  |  | 23 | 2.5 | 0.16 | 13 | Non-Toxic | Non-Toxic | Non-Toxic | Active | Active | 
CC(C)[C@H](C(=O)O)N(CCNC(=O)c1ccccc1)S(=O)(=O)c1ccc(-c2ccccc2)cc1 |  |  |  | 1830 | 510 | 170 | 16000 | Non-Toxic | Non-Toxic | Non-Toxic | Active | Active | 
CC(C)[C@H](C(=O)NO)N(CCNC(=O)c1cccc(C(=O)NCCN([C@@H](C(=O)N(C)C)C(C)C)S(=O)(=O)c2ccc(-c3ccccc3)cc2)c1)S(=O)(=O)c1ccc(-c2ccccc2)cc1 |  |  |  | 900 | 41 | 107 | 1600 |  |  |  |  |  | 
CC(C)[C@H](C(=O)O)N(CCNC(=O)c1cccc(C(=O)NCCN([C@@H](C(=O)N(C)C)C(C)C)S(=O)(=O)c2ccc(-c3ccccc3)cc2)c1)S(=O)(=O)c1ccc(-c2ccccc2)cc1 |  |  |  | 850 | 34 | 110 | 2050 |  |  |  |  |  | 
CC(C)[C@H](C(=O)O)N(CCNC(=O)c1cccc(C(=O)NCCN([C@@H](C(=O)O)C(C)C)S(=O)(=O)c2ccc(-c3ccccc3)cc2)c1)S(=O)(=O)c1ccc(-c2ccccc2)cc1 | Active |  |  | 2200 | 26 | 63 | 11800 | Non-Toxic | Non-Toxic | Non-Toxic | Active | Active | 450
CC(C)[C@H](C(=O)NO)N(CCNC(=O)c1cccc(C(=O)NCCN([C@@H](C(=O)NO)C(C)C)S(=O)(=O)c2ccc(-c3ccccc3)cc2)c1)S(=O)(=O)c1ccc(-c2ccccc2)cc1 | Active |  |  | 250 | 5.5 | 10 | 280 | Non-Toxic | Non-Toxic | Non-Toxic | Active | Active | 
